Earlier results, collected in patent US20110223150A1, “Neutraceutical-Based Topical Anxiolytic Agent and Method of Use” (priority 2009, published 2011).
Read-outs that look alike come from different tables or passages of the source.

How the values were obtained:
[1] = system: spontaneously hypertensive rats (SHR); details: dose-dependent
mice = details: i.p. in mice
rats [2] = system: rats
rats [3] = details: chronic administration of 50 mg/kg

Row | Compound | blood pressure effect [1] | LD50 (mice) | LD50 (rats [2]; i.p. in rats) | LD50 (rats [2]; rats, method of administration not given) | teratogenic effects (rats [3]) | time until alpha waves were observed (occipital and parietal regions) (alpha brain waves; 50 or 200 mg of L-theanine) | time to sense of relaxation after ingestion (alpha brain waves; after ingestion) | time after which intensity of alpha waves was detectable (alpha brain waves; separate study, dose dependent, 200 mg significant over controls)
1 | NC(=O)CC[C@H](N)C(=O)O [L-glutamine] | did not exhibit an anti-hypertensive effect |  |  |  |  |  |  | 
2 | NCC(CC(=O)O)c1ccccc1 (stereo not drawn) [Phenibut, beta-phenyl-gamma-aminobutyric acid] |  | 900 mg/kg | 700 mg/kg | 1000 mg/kg | did not have teratogenic effects |  |  | 
3 | gamma-ethylamino-L-glutamic acid [L-theanine] | blood pressure lowering effect |  |  |  |  | ≤ 40 min | 30 to 40 min | 30 min
